In the NIST ThermoML archive (doi:10.1021/je4009238):
Numbers after ± are expanded uncertainties.

Legend:
[1] = 101 kPa, Liquid
[2] = refractive index (Na D-line) (dimensionless); conditions: 101.33 kPa, Liquid
[3] = refractive index (Na D-line) (dimensionless); xn = mol fraction of the nth substance listed; conditions: 101 kPa, Liquid, x2 = 0
[4] = xn = mol fraction of the nth substance listed; conditions: 101 kPa, Liquid, x2 = 0

| Compound | refractive index ([3]; 288.15 K) | refractive index ([3]; 298.15 K) | refractive index ([3]; 308.15 K) | refractive index ([3]; 318.15 K) | mass density ([4]; 288.15 K) [kg/m3] | viscosity ([4]; 288.15 K) [mPa·s] | mass density ([4]; 298.15 K) [kg/m3] | viscosity ([4]; 298.15 K) [mPa·s] | mass density ([4]; 308.15 K) [kg/m3] | viscosity ([4]; 308.15 K) [mPa·s] | mass density ([4]; 318.15 K) [kg/m3] | viscosity ([4]; 318.15 K) [mPa·s] | also measured |
| --- | --- | --- | --- | --- | --- | --- | --- | --- | --- | --- | --- | --- | --- |
| CN(C)C=O [dimethylformamide] |  |  |  |  |  |  |  |  |  |  |  |  | mass density ([1]; 288.15 K): 953.79 ± 0.83 kg/m3; viscosity ([1]; 288.15 K): 0.936 ± 0.11 mPa·s; mass density ([1]; 298.15 K): 944.26 ± 0.89 kg/m3; viscosity ([1]; 298.15 K): 0.825 ± 0.1 mPa·s; mass density ([1]; 308.15 K): 934.69 ± 0.95 kg/m3; viscosity ([1]; 308.15 K): 0.736 ± 0.098 mPa·s; mass density ([1]; 318.15 K): 925.16 ± 1 kg/m3; viscosity ([1]; 318.15 K): 0.665 ± 0.095 mPa·s; refractive index ([2]; 288.15 K): 1.43304 ± 0.00063; refractive index ([2]; 298.15 K): 1.42858 ± 0.00063; refractive index ([2]; 308.15 K): 1.42381 ± 0.00063; refractive index ([2]; 318.15 K): 1.41909 ± 0.00063 |
| CN(C)C=O [dimethylformamide] + CCCCCCCC[n+]1ccn(C)c1.[Cl-] | 1.43304 ± 0.01 | 1.42858 ± 0.01 | 1.42381 ± 0.01 | 1.41909 ± 0.01 | 953.79 ± 10 | 0.936 ± 0.14 | 944.26 ± 10 | 0.825 ± 0.12 | 934.69 ± 10 | 0.736 ± 0.12 | 925.16 ± 10 | 0.665 ± 0.11 |  |
| CN(C)C=O [dimethylformamide] + CCCCCCn1cc[n+](C)c1.[Cl-] | 1.43304 ± 0.0012 | 1.42858 ± 0.0012 | 1.42381 ± 0.0012 | 1.41909 ± 0.0012 | 953.79 ± 0.83 | 0.936 ± 0.22 | 944.26 ± 0.89 | 0.825 ± 0.21 | 934.69 ± 0.95 | 0.736 ± 0.2 | 925.16 ± 1 | 0.665 ± 0.19 |  |
| CN(C)C=O [dimethylformamide] + CCCCn1cc[n+](C)c1.[Cl-] | 1.43304 ± 0.00063 | 1.42858 ± 0.00063 | 1.42381 ± 0.00063 | 1.41909 ± 0.00063 | 953.79 ± 0.83 | 0.936 ± 0.11 | 944.26 ± 0.89 | 0.825 ± 0.1 | 934.69 ± 0.95 | 0.736 ± 0.098 | 925.16 ± 1 | 0.665 ± 0.095 |  |
| CN(C)C=O [dimethylformamide] + CCn1cc[n+](C)c1.[Cl-] | 1.43304 ± 0.00063 | 1.42858 ± 0.00063 | 1.42381 ± 0.00063 | 1.41909 ± 0.00063 | 953.79 ± 0.83 | 0.936 ± 0.11 | 944.26 ± 0.89 | 0.825 ± 0.1 | 934.69 ± 0.95 | 0.736 ± 0.098 | 925.16 ± 1 | 0.665 ± 0.095 |  |
